Reference: BindingDB's records for doi:10.1016/j.bmcl.2008.11.037 (Wyeth Research, 2009)

Target: Insulin-like growth factor 1 receptor (Homo sapiens, UniProt P08069)
Test: In Vitro Kinase Inhibition Assay
Protocol: Assays were performed in microtiter plates in reaction buffer containing biotinylated substrate, ATP, and purified kinase in the presence of test compounds. After incubation, product was detected using a homogeneous time-resolved fluorescence quenching assay (LANCE).

Insulin-like growth factor 1 receptor, sequence (P08069 31-736 limits assumed): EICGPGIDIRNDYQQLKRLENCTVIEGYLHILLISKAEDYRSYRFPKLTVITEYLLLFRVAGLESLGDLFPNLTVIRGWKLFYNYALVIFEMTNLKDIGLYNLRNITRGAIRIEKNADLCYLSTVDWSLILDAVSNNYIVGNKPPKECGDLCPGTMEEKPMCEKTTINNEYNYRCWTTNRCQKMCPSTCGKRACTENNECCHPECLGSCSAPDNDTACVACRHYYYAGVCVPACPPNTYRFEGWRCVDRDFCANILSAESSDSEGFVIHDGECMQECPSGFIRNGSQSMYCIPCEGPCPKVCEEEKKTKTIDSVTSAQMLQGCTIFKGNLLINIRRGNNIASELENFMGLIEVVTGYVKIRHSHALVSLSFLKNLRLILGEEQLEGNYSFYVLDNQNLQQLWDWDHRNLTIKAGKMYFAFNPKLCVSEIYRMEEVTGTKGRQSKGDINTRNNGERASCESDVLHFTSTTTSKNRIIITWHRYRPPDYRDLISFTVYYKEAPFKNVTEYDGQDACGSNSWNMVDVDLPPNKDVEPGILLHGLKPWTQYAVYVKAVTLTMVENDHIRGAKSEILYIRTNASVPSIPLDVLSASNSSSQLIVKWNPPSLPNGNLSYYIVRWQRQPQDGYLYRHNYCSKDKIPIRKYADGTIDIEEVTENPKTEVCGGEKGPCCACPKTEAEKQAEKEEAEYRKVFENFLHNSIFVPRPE
Insulin-like growth factor 1 receptor, sequence (P08069 741-1367 limits assumed): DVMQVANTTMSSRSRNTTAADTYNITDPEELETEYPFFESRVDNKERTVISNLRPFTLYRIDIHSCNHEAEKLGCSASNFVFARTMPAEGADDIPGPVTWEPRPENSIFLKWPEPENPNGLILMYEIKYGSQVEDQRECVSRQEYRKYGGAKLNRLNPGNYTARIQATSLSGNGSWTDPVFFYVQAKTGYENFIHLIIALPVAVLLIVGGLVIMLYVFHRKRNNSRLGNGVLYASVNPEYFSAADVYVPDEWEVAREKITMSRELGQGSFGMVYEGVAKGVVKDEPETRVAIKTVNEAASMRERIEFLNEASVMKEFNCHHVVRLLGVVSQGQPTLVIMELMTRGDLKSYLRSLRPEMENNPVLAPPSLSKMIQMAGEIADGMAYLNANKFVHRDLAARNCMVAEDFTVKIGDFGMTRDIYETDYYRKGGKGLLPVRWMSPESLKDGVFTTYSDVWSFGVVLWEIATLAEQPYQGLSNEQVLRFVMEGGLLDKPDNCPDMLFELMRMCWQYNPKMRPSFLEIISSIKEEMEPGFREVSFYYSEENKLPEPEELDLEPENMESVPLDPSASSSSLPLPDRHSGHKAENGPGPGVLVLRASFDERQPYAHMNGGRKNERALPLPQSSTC

| IC50 (pH 7.5, 22 °C) | IC50 | SMILES |
| --- | --- | --- |
| 20 nM |  | CCn1c(Sc2ccc(Nc3c(C#N)cnc4cc(NCCCN5CCOCC5)c(OC)cc34)cc2Cl)nc(C)c1C [4-({3-chloro-4-[(1-ethyl-4,5-dimethyl-1H-imidazol-2-yl)sulfanyl]phenyl}amino)-6-methoxy-7-{[3-(morpholin-4-yl)propyl]amino}quinoline-3-carbonitrile] |
| 135 nM |  | CCOC(=O)C1CCN(CCCOc2cc3ncc(C#N)c(Nc4ccc(Sc5nc(C)c(C)n5CC)c(Cl)c4)c3cc2OC)CC1 [ethyl 1-(3-{[4-({3-chloro-4-[(1-ethyl-4,5-dimethyl-1H-imidazol-2-yl)sulfanyl]phenyl}amino)-3-cyano-6-methoxyquinolin-7-yl]oxy}propyl)piperidine-4-carboxylate] |

More lines, now with the values behind:

| SMILES | IC50 (pH 7.5, 22 °C) | IC50 |
| --- | --- | --- |
| COc1cc2c(Nc3ccc(Sc4ncc(C)n4C)c(Cl)c3)c(C#N)cnc2cc1NCCCN(C)C [4-({3-chloro-4-[(1,5-dimethyl-1H-imidazol-2-yl)sulfanyl]phenyl}amino)-7-{[3-(dimethylamino)propyl]amino}-6-methoxyquinoline-3-carbonitrile] | 291 nM |  |
| COc1cc2c(Nc3ccc(Sc4ccccc4)cc3)c(C#N)cnc2cc1OCCCN1CCOCC1 [6-methoxy-7-[3-(morpholin-4-yl)propoxy]-4-{[4-(phenylsulfanyl)phenyl]amino}quinoline-3-carbonitrile] |  | 1090 nM |
| CCn1c(Sc2ccc(Nc3c(C#N)cnc4cc(OCCCN5CCN(CCOC(N)=O)CC5)c(OC)cc34)cc2Cl)nc(C)c1C [{2-[4-(3-{[4-({3-chloro-4-[(1-ethyl-4,5-dimethyl-1H-imidazol-2-yl)sulfanyl]phenyl}amino)-3-cyano-6-methoxyquinolin-7-yl]oxy}propyl)piperazin-1-yl]ethyl} carbamate] |  | 17 nM |
